Here are results for one molecule from US12545936B2, “Expression and secretion of UV absorbent material from transformed bacteria” (University of Cincinnati, priority 2021, dated 2026).

Each structure is given as a SMILES string. Entries after “also recorded” stand apart in the source; their conditions may differ.

In this test the test system is human skin tissues. In words: UV irradiation of human skin explants, cleaved caspase-3 immunohistochemical staining. Type of test: cell-based. The protocol: MAAs extracted from the engineered bacteria of the present invention were evaluated. Human skin was obtained from discarded tissue from elective procedures. The skin tissue was cleaned, trimmed, sterilized and plated in an organ culture medium overnight at 33° C. MAA extract or appropriate controls were applied on skin tissues, after which they were exposed to 135 mJ/cm2 UV-A and UV-B light. The application of live bacteria on human skin tissue was subsequently tested. Different treatments viz. overnight culture of wild type EcN, 10% zinc oxide solution, or overnight culture of EcN expressing shinorine were applied on human skin explants. Treatments were allowed to equilibrate with skin tissue for 1 hour, after which tissues were exposed to UV radiation. The tissues were then incubated for different durations and subsequently fixed. Cleaved caspase-3 immunohistochemical staining was performed to check for DNA damage. Slides were imaged using Leica Slide Scanner and representative images were captured. The captured images were quantified using ImageJ with a modified, previously published protocol (Crowe and Yue, 2019).

For the molecule `COC1=C(NCC(=O)O)C[C@@](O)(CO)C/C1=N\[C@@H](CO)C(=O)O` [shinorine], where the note is “MAA extract applied on human skin tissue, 135 mJ/cm2 UV-A and UV-B, three days post exposure, cleaved caspase-3 IHC”, the “preventing and/or reducing UV-induced DNA damage compared to untreated group” value was “significantly effective”. For the same molecule, the “efficacy vs. 10% zinc oxide against UV-induced DNA damage” value (human skin tissue, 72 h post UV irradiation, comparator 10% ZnO, FIG. 7) is on record as “significant efficacy; also recorded: significantly more effective”.
